This note sets out measurements from ChEMBL document CHEMBL4513161, “CO-ADD screening of MMV (CH) - Pandemic Response Box” (2021).

Structures are written as SMILES. ≈ marks a conversion by molar mass, not a printed value.

In test [1] the test system is HEK293. The test can be described thus: cells. Format: functional, Homo sapiens, ATCC CRL1573. The settings on record: Homo sapiens, ATCC CRL1573, HEK293; ASSAY_TEST Inhibition of Cell Viability; detection method Resazurin; Fluorescence (ex560/em590); MEDIA DMEM with 10% FBS; plate type 384well; TC; CORNING #3712; time 18 hr; read-out: CC50. Background: Resazurin is reduced to fluorescent resorufin, in cell work by metabolically active cells.

Test [2] deals with Pseudomonas aeruginosa. The experiment in a line: Antibacterial activity against Pseudomonas aeruginosa PAO397 [PAO1 d(mexAB-oprM) d(mexCD-oprJ) d(mexEF-oprN) d(mexJKL) d(mexXY) d(opmH)] (CO-ADD:GN_211); MIC in CAMBH media using NBS plates, by OD(600). Format: functional. The settings on record: ASSAY_TEST Inhibition of Bacterial Growth, detection method Absorption (OD600), MEDIA CAMHB, plate type 384well, CORNING #3640, time 18 hr.

In test [3] the test system is Cryptococcus neoformans.
Description: Antifungal activity against Cryptococcus neoformans H99 ATCC 208821 (CO-ADD:FG_002); MIC in YNB media using NBS plates, by Resazurin OD(600-570)
The test system of test [4] is Staphylococcus aureus. The experiment in a line: microbe, parasite or virus in culture. The settings on record: ATCC 43300, 18 h, ASSAY_TEST Inhibition of Bacterial Growth, detection method Absorption (OD600), MEDIA CAMHB, plate type 384well, NBS, CORNING #3640.
Description: Antibacterial activity against Staphylococcus aureus MRSA ATCC 43300 (CO-ADD:GP_020); MIC in CAMBH media, using NBS plates, by OD(600)
The test system of test [5] is Escherichia coli. The experiment in a line: microbe, parasite or virus in culture. The settings on record: ATCC 25922, 18 h, ASSAY_TEST Inhibition of Bacterial Growth, detection method Absorption (OD600), MEDIA CAMHB, plate type 384well, NBS, CORNING #3640.
Description: Antibacterial activity against Escherichia coli ATCC 25922 (CO-ADD:GN_001); MIC in CAMBH media using NBS plates, by OD(600)
The test system of test [6] is Candida albicans. The experiment in a line: microbe, parasite or virus in culture. The following applies: ATCC 90028, ASSAY_TEST Inhibition of Fungal Growth, detection method Absorption (OD530), plate type 384well, NBS, CORNING #3640.
Description: Antifungal activity against Candida albicans ATCC 90028 (CO-ADD:FG_001); MIC in YNB media using NBS plates, by OD630
Test [7] has as its system Klebsiella pneumoniae. The experiment in a line: microbe, parasite or virus in culture. The following applies: ATCC 700603, 18 h, ASSAY_TEST Inhibition of Bacterial Growth, detection method Absorption (OD600), MEDIA CAMHB, plate type 384well, NBS, CORNING #3640.
Description: Antibacterial activity against Klebsiella pneumoniae MDR ATCC 70063 (CO-ADD:GN_003); MIC in CAMBH media using NBS plates, by OD(600)
Test [8] has as its system Acinetobacter baumannii. The experiment in a line: microbe, parasite or virus in culture. The settings on record: ATCC 19606, 18 h, ASSAY_TEST Inhibition of Bacterial Growth, detection method Absorption (OD600), MEDIA CAMHB, plate type 384well, NBS, CORNING #3640.
Description: Antibacterial activity against Acinetobacter baumannii ATCC 19606 (CO-ADD:GN_034); MIC in CAMBH media using NBS plates, by OD600
In test [9] the test system is Pseudomonas aeruginosa. The test can be described thus: microbe, parasite or virus in culture. The following applies: ATCC 27853, 18 h, ASSAY_TEST Inhibition of Bacterial Growth, detection method Absorption (OD600), MEDIA CAMHB, plate type 384well, NBS, CORNING #3640.
Description: Antibacterial activity against Pseudomonas aeruginosa ATCC 27853 (CO-ADD:GN_042); MIC in CAMBH media using NBS plates, by OD(600)

By CC50 is commonly meant the concentration that lowers cell viability or growth by half. For the compound `COc1ccccc1NC(=O)c1ccccc1Sc1ccc([N+](=O)[O-])cc1`, in test [1], the CC50 is more than 20 µM. For the same compound, the MIC in test [2], in test [3], in [4], in test [5], in [6] and in test [7] was more than 20 µM in each case. For the same compound, the MIC in [8] and in [9] was more than 20 µM each time.

`Cc1[nH]c2ccccc2c1CC(=O)N[C@@H](Cc1ccccc1)C(=O)N(C)c1ccccc1`: in test [1], the CC50 is more than 20 µM. Also, the MIC in test [2], in test [3], in test [4], in [5], in [6] and in test [7] was more than 20 µM each time. For the same compound, the MIC in [8] and in [9] was more than 20 µM in each case.

In the case of `N#Cc1cc([N+](=O)[O-])ccc1Oc1ccccc1Cl`, the CC50 in [1] was more than 20 µM. In addition, the MIC in test [2], in test [3], in [4], in [5], in test [6] and in test [7] was more than 20 µM in each case. Further, the MIC in test [8] and in test [9] was more than 20 µM throughout.

For `CS(=O)(=O)c1ccc(Oc2ccc(Cl)cc2)cc1`, the cytotoxic concentration (CC50) in test [1] was more than 20 µM. Further, the MIC in [2], in test [3], in test [4], in test [5], in test [6] and in test [7] was more than 20 µM in each case. The MIC in test [8] and in test [9] was more than 20 µM in each case.

In the case of `Oc1cccc(C(Nc2nccs2)c2ccc3cccnc3c2O)c1` (stereo not given), the cytotoxic concentration (CC50) in [1] came out at 6.67 µM. Moreover, the MIC in test [2], in test [3], in [4], in [5], in test [6] and in test [7] was more than 20 µM each time. Further, the MIC in test [8] and in test [9] was more than 20 µM in each case.

On to `O=C(c1ccc(F)cc1)N1CCN2C(=O)c3ccccc3C12c1ccccc1` (stereo not given), for which the cytotoxic concentration (CC50) in [1] is more than 20 µM. Moreover, the MIC in test [2], in test [3], in test [4], in test [5], in test [6] and in test [7] was more than 20 µM throughout. The MIC in test [8] and in [9] was more than 20 µM each time.

For the compound `CC(C)(C)c1ccc(Oc2ccc(N)cc2)cc1`, in test [1], the CC50 is more than 20 µM. For the same compound, the MIC in test [2], in test [3], in [4], in test [5], in [6] and in test [7] was more than 20 µM each time. In addition, the MIC in [8] and in test [9] was more than 20 µM each time.

With `Nc1cnn(C2OC(CO)C(O)C2O)c(=O)n1` (stereo not given), the half-maximal cytotoxic concentration (CC50) in [1] is more than 20 µM. Also, the MIC in test [2], in test [3], in [4], in test [5], in [6] and in test [7] was more than 20 µM in each case. Besides, the MIC in test [8] and in test [9] was more than 20 µM throughout.

For the compound `O=S(=O)(Nc1ccc(O)cc1)c1cccc2cccnc12`, in test [1], the CC50 is more than 20 µM. Further, the MIC in test [2], in test [3], in [4], in test [5], in test [6] and in [7] was more than 20 µM throughout. In addition, the MIC in test [8] and in test [9] was more than 20 µM each time.

Regarding `CC(=O)N1c2ccccc2NC2=C(C(=O)CC(C)(C)C2)C1c1ccc(OCc2ccccc2)cc1` (stereo not given), the half-maximal cytotoxic concentration (CC50) in [1] is more than 20 µM. Moreover, the MIC in test [2], in test [3], in test [4], in test [5], in [6] and in test [7] was more than 20 µM each time. The MIC in test [8] and in [9] was more than 20 µM in each case.

With `C[C@H](NC(=O)C(=O)Nc1ccccc1C(C)(C)C)C(=O)N[C@@H](CC(=O)O)C(=O)COc1c(F)c(F)cc(F)c1F`, the CC50 in test [1] was more than 20 µM. Besides, the MIC in test [2], in test [3], in test [4], in [5], in test [6] and in test [7] was more than 20 µM in each case. In addition, the MIC in test [8] and in test [9] was more than 20 µM throughout.

As to `Cc1ccccc1NC(=O)Nc1cccc([N+](=O)[O-])c1`, the CC50 in test [1] was more than 20 µM. The MIC in test [2], in [3], in test [4], in test [5], in [6] and in test [7] was more than 20 µM in each case. For the same compound, the MIC in test [8] and in test [9] was more than 20 µM each time.

As for `CCOC(=O)/C=C/[C@H](C[C@@H]1CCNC1=O)NC(=O)[C@@H](CC(=O)[C@@H](NC(=O)c1cc(C)on1)C(C)C)Cc1ccc(F)cc1`, the CC50 in test [1] was more than 20 µM. Also, the MIC in test [2], in test [3], in test [4], in test [5], in test [6] and in [7] was more than 20 µM throughout. Besides, the MIC in [8] and in [9] was more than 20 µM each time.

On to `Nc1nc(O)c2ncn([C@@H]3O[C@H](CO)[C@@H](O)[C@H]3F)c2n1`, for which the CC50 in test [1] is more than 20 µM. Moreover, the MIC in test [2], in test [3], in [4], in test [5], in test [6] and in test [7] was more than 20 µM each time. Moreover, the MIC in test [8] and in [9] was more than 20 µM throughout.

In the case of `NC1C2CC3CC(C2)CC1C3` (stereo not given), in test [1], the CC50 was more than 20 µM. Also, the MIC in test [2], in [3], in test [4], in test [5], in test [6] and in test [7] was more than 20 µM in each case. Also, the MIC in test [8] and in test [9] was more than 20 µM in each case.

With `COC1CC2CCC(C)C(O)(O2)C(=O)C(=O)N2CCCCC2C(=O)OC(C(C)CC2CCC(OCCO)C(OC)C2)CC(=O)C(C)/C=C(\C)C(O)C(OC)C(=O)C(C)CC(C)/C=C/C=C/C=C/1C` (stereo not given), in test [1], the 50% cytotoxic concentration (CC50) is more than 20 µM. The MIC was more than 20 µM in test [2]; not above 0.156 µM in test [3]; more than 20 µM in test [4]; more than 20 µM in [5]; not above 0.156 µM in [6]; more than 20 µM in test [7]. Moreover, the MIC in test [8] and in test [9] was more than 20 µM in each case.

For the compound `O=C(NC1CCCc2c1[nH]c1ccc(Cl)cc21)c1ccccn1` (stereo not given), the CC50 in test [1] is more than 20 µM. Moreover, the MIC is 20 µM (≈ 6.52 µg/mL) in test [2]; more than 20 µM in [3]; more than 20 µM in test [4]; more than 20 µM in test [5]; more than 20 µM in test [6]; more than 20 µM in test [7]. The MIC in [8] and in test [9] was more than 20 µM in each case.

On to `COc1cc(C(C)(C)CCCC(C)C)cc(OC)c1OC`, for which, in test [1], the CC50 was more than 20 µM. Further, the MIC in test [2], in test [3], in [4], in test [5], in test [6] and in [7] was more than 20 µM each time. Further, the MIC in [8] and in test [9] was more than 20 µM in each case.

With `CC(C)N(c1cc(-c2ccccc2)sc1C(=O)O)C(=O)[C@H]1CC[C@H](C)CC1`, the half-maximal cytotoxic concentration (CC50) in test [1] is more than 20 µM. The MIC in [2], in test [3], in test [4], in test [5], in test [6] and in [7] was more than 20 µM throughout. Moreover, the MIC in test [8] and in test [9] was more than 20 µM throughout.

Take `Nc1nc(O)c(Br)c(-c2cccc(Cl)c2)n1`: in test [1], the 50% cytotoxic concentration (CC50) is more than 20 µM. The MIC in [2], in [3], in [4], in test [5], in [6] and in test [7] was more than 20 µM in each case. Besides, the MIC in test [8] and in [9] was more than 20 µM throughout.
